# Measured values as given in patent publication US6313161A, “2,19-methyleneoxy and 2,19-methylenethio bridged steroids as aromatase, 19-hydroxylase inhibitors and methods of their use in the treatment of estrogen mediated disorders” (Merrell Pharmaceuticals Inc., priority 1999, dated 2001).
# Key:
# aromatase = molecular target: T1, aromatase (Homo sapiens, UniProt P11511); experiment: Time-dependent aromatase inhibition assay (Kitz-Wilson kinetics); conditions: 25° C., Kitz-Wilson plots; for KI (inactivation): read-out: apparent Ki of inactivation, inhibitor concentration for half-maximal rate of enzyme inactivation
# T1 sequence (P11511 1-503): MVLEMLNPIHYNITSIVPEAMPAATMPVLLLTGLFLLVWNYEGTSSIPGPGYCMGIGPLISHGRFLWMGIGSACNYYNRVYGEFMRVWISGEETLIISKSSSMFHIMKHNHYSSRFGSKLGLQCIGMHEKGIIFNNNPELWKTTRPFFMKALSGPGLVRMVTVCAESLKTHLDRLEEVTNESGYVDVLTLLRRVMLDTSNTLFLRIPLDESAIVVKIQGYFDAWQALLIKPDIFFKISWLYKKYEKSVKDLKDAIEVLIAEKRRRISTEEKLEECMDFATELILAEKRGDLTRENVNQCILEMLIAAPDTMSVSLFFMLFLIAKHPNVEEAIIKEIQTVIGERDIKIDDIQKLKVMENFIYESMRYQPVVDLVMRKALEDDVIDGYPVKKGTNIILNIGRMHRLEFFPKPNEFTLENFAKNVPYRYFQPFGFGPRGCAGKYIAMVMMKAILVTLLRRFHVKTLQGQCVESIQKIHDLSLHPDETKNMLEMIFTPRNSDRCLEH
# Experimental: In this assay, the inhibitor is preincubated with enzyme prior to assaying for activity in the presence of high substrate levels. A time-related decrease in enzyme activity can be indicative of irreversible binding of the inhibitor with the enzyme.
# In the time-dependent assay, an amount of the enzyme inhibitor in 100 μl of the assay buffer described above which will provide assay concentrations which are usually between 1 nM and 10 μM are added to 35 ml centrifuge tubes containing 600 μl of the NADPH generating system. The preincubation is started by the addition of 700 μl of aromatase preparation, usually 500-800 μg of microsomal protein per ml of assay buffer. These preparations are mixed using a vortex mixer and incubated for 0, 10, 20, or 40 minutes at 25° C. […] Following vortexing, the enzyme incubation is continued for 10 minutes before being terminated by the addition of chloroform. The amount of radioactivity in the aqueous fraction is determined by scintillation procedures. The enzymatic activity for each concentration of inhibitor at each time period of preincubation is calculated as a percent of the "0" minute vehicle control arbitrarily set at 100%. Therefore, the present enzyme inhibition is expressed as a percentage: (100 percent minus percent enzyme activity with inhibitor present).
# Enzyme kinetic analysis utilized Kitz-Wilson plots for time-dependent assays. These analyses provide estimates of apparent Ki of inactivation which represents the inhibitor concentration required to produce half-maximal rate of enzyme inactivation. The pseudo first-order rate constant for enzyme inactivation (kcat) and the half-time of inactivation (.tau.50) of infinite inhibitor concentrations were determined.
# intratumor aromatase = experiment: Inhibition of intratumor aromatase activity (estrogen formed); format: in vivo
# Source text: According to the method of Johnston, J. O. et al., J. Steroid Biochem., 33:521, 1989, which is herein incorporated by reference, the compounds of the present invention were further evaluated for their effect upon intratumor aromatase activity.
# [1] = system: DMBA-induced mammary tumors; experiment: DMBA induced mammary tumor growth; format: in vivo, rat; conditions: 15 mg/kg/day sc osmotic pump, 42 days
# Experimental: The compounds of the present invention were also tested for the inhibition of tumor growth. Tumor growth inhibition was tested by the treatment of 50-day old female rats with the carcinogen, 7,12-dimethylbenz[a]anthracene[DMBA] and subsequently evaluated for tumor growth and/or remission (Huggins, C. et al., Nature 189:204, 1961; Russo, J. et al., Lab. Investigation 62: 244, 1990). Rats with DMBA-induced mammary tumors (≈[…]) were assigned to the following treatment groups: (1) Non-treated controls, (2) animals with subcutaneous implanted osmotic pump containing vehicle (DMSO/PEG200, 1:4 v/v), and (3) animals with subcutaneous implanted osmotic pump containing vehicle and 15 mg/kg/day of 2,19-(methyleneoxy) androst-4-ene-3,17-dione. Drug-treated animals also received 15 mg/kg/day via subcutaneous injections for the first two days of treatment as a priming dose. Tumor size was monitored for 42 days of drug treatment.
# [2] = substrate: C[C@]12CCC(=O)C=C1CC[C@@H]1[C@@H]2CC[C@]2(C)C(=O)CC[C@@H]12; experiment: purified protein, by the assay type; conditions: other: substrate of aromatase; 25.0 °C
# Experimental: In the time-dependent assay, an amount of the enzyme inhibitor in 100 μl of the assay buffer described above which will provide assay concentrations which are usually between 1 nM and 10 μM are added to 35 ml centrifuge tubes containing 600 μl of the NADPH generating system. The preincubation is started by the addition of 700 μl of aromatase preparation, usually 500-800 μg of microsomal protein per ml of assay buffer. […] The amount of radioactivity in the aqueous fraction is determined by scintillation procedures. The enzymatic activity for each concentration of inhibitor at each time period of preincubation is calculated as a percent of the "0" minute vehicle control arbitrarily set at 100%. Therefore, the present enzyme inhibition is expressed as a percentage: (100 percent minus percent enzyme activity with inhibitor present).
# Enzyme kinetic analysis utilized Kitz-Wilson plots for time-dependent assays. […] The pseudo first-order rate constant for enzyme inactivation (kcat) and the half-time of inactivation (.tau.50) of infinite inhibitor concentrations were determined.
molecule,measurement,setting,value
"C[C@]12CC[C@H]3[C@@H](CCC4=CC(=O)[C@H]5CSC[C@]43C5)[C@@H]1CCC2=O [2,19-(methylenethio)androst-4-ene-3,17-dione]",.tau.50 (half-time of inactivation at infinite inhibitor concentration),aromatase,1.65 min
same,KI (inactivation),aromatase,53 nM
"C[C@]12CC[C@H]3[C@@H](CCC4=CC(=O)[C@H]5COC[C@]43C5)[C@@H]1CCC2=O [2,19-(methyleneoxy)androst-4-ene-3,17-dione]",.tau.50 (half-time of inactivation at infinite inhibitor concentration),aromatase,2.86 min
same,KI (inactivation),aromatase,17.6 nM
same,% Inhibition of intratumor aromatase activity,"intratumor aromatase; 3 mg/kg intraveneous, 2 hours post treatment",70 ± 5%
same,"Estrogen formed, absolute level","intratumor aromatase; 3 mg/kg intraveneous, 2 hours post treatment, vehicle control 294 ± 5",88 ± 15 picomoles/gram of tumor/hour
same,% Inhibition of intratumor aromatase activity,"intratumor aromatase; 3 mg/kg intraveneous, 4 hours post treatment",41 ± 4%
same,"Estrogen formed, absolute level","intratumor aromatase; 3 mg/kg intraveneous, 4 hours post treatment, vehicle control 294 ± 5",175 ± 12 picomoles/gram of tumor/hour
same,% Inhibition of intratumor aromatase activity,"intratumor aromatase; 3 mg/kg intraveneous, 6 hours post treatment",37 ± 3%
same,"Estrogen formed, absolute level","intratumor aromatase; 3 mg/kg intraveneous, 6 hours post treatment, vehicle control 294 ± 5",186 ± 9 picomoles/gram of tumor/hour
same,% Inhibition of intratumor aromatase activity,"intratumor aromatase; 3 mg/kg oral, 2 hours post treatment",72 ± 5%
same,"Estrogen formed, absolute level","intratumor aromatase; 3 mg/kg oral, 2 hours post treatment, vehicle control 173 ± 9",49 ± 8 picomoles/gram of tumor/hour
same,% Inhibition of intratumor aromatase activity,"intratumor aromatase; 3 mg/kg oral, 4 hours post treatment",64 ± 4%
same,"Estrogen formed, absolute level","intratumor aromatase; 3 mg/kg oral, 4 hours post treatment, vehicle control 173 ± 9",62 ± 7 picomoles/gram of tumor/hour
same,% Inhibition of intratumor aromatase activity,"intratumor aromatase; 3 mg/kg oral, 6 hours post treatment",63 ± 5%
same,"Estrogen formed, absolute level","intratumor aromatase; 3 mg/kg oral, 6 hours post treatment, vehicle control 173 ± 9",64 ± 9 picomoles/gram of tumor/hour
same,% Inhibition of intratumor aromatase activity,"intratumor aromatase; 3 mg/kg subcutaneous, 2 hours post treatment",44 ± 5%
same,"Estrogen formed, absolute level","intratumor aromatase; 3 mg/kg subcutaneous, 2 hours post treatment, vehicle control 121 ± 85",68 ± 6 picomoles/gram of tumor/hour
same,% Inhibition of intratumor aromatase activity,"intratumor aromatase; 3 mg/kg subcutaneous, 4 hours post treatment",45 ± 32%
same,"Estrogen formed, absolute level","intratumor aromatase; 3 mg/kg subcutaneous, 4 hours post treatment, vehicle control 121 ± 85",67 ± 3 picomoles/gram of tumor/hour
same,% Inhibition of intratumor aromatase activity,"intratumor aromatase; 3 mg/kg subcutaneous, 6 hours post treatment",35 ± 7%
same,"Estrogen formed, absolute level","intratumor aromatase; 3 mg/kg subcutaneous, 6 hours post treatment, vehicle control 121 ± 85",78 ± 9 picomoles/gram of tumor/hour
same,percent of animals with no change,"[1]; 50 to 150% of original tumor volume, controls 6.7",14.3% of animals
same,percent of animals with partial tumor regression,"[1]; <50% of original tumor volume, controls 6.7",42.9% of animals
same,percent of animals with tumor progression,"[1]; >150% of original tumor volume, controls 80.0",28.6% of animals
same,percent of animals with complete tumor regression,"[1]; Complete (0%), controls 6.7",14.3% of animals
"C[C@]12CC[C@H]3[C@@H](C=CC4=CC(=O)[C@H]5COC[C@]43C5)[C@@H]1CCC2=O [2,19-(methyleneoxy)androsta-4,6-diene-3,17-dione]",.tau.50 (half-time of inactivation at infinite inhibitor concentration),aromatase,2.82 min
same,KI (inactivation),aromatase,21.6 nM
aromatase (Homo sapiens) (protein) MVLEMLNPIHYNITSIVPEAMPAATMPVLLLTGLFLLVWNYEGTSSIPGPGYCMGIGPLISHGRFLWMGIGSACNYYNRVYGEFMRVWISGEETLIISKSSSMFHIMKHNHYSSRFGSKLGLQCIGMHEKGIIFNNNPELWKTTRPFFMKALSGPGLVRMVTVCAESLKTHLDRLEEVTNESGYVDVLTLLRRVMLDTSNTLFLRIPLDESAIVVKIQGYFDAWQALLIKPDIFFKISWLYKKYEKSVKDLKDAIEVLIAEKRRRISTEEKLEECMDFATELILAEKRGDLTRENVNQCILEMLIAAPDTMSVSLFFMLFLIAKHPNVEEAIIKEIQTVIGERDIKIDDIQKLKVMENFIYESMRYQPVVDLVMRKALEDDVIDGYPVKKGTNIILNIGRMHRLEFFPKPNEFTLENFAKNVPYRYFQPFGFGPRGCAGKYIAMVMMKAILVTLLRRFHVKTLQGQCVESIQKIHDLSLHPDETKNMLEMIFTPRNSDRCLEH,Km,[2],0.04 µM
